These results are taken from PMC8073907, “Peptide targeting of lysophosphatidylinositol-sensing GPR55 for osteoclastogenesis tuning” (Cell Communication and Signaling : CCS, 2021).

The test system of the assay is endogenous GPR55 in RAW264.7 cells. The assay can be described thus: Intracellular Ca2+ assay in siRNA-interfered RAW264.7 cells. Type of assay: cell-based, murine. To be noted: si-NT cells, 72 h of interference; 10 µM 16:0 LPI, within the first minute. The protocol: For transient interference of Gpr55, RAW264.7 cells were plated at 6 × 10^5 cells/well in six-well plates in growth medium without antibiotics. Twenty-four hours later, the cells were transfected with 250 pmol/well non-targeting small-interfering (si)RNAs (si-NT; siGENOME siRNA Pool #2; D-001206-14; Dharmacon, Chicago, IL, USA) or Gpr55-specific siRNAs (si-GPR55; siGENOME mouse GPR55 SMART pool; M-043590-01; Dharmacon) using Lipofectamine LTX and Plus Reagent, according to the manufacturer instructions. Twenty-four hours later, the cells were plated for the different assays or for RNA extraction. The efficiency of interference was monitored by real-time PCR after 72 h of interference, using the primers listed in the Additional file 1: Table S1. β2-microglobulin was followed as a housekeeping gene.
After 48 h of siRNA treatments, the RAW264.7 cells were detached with 600 μM EDTA in PBS, and plated at a density of 8 × 10^4 cells/well in 96-well plates. […] All the subsequent incubation steps were performed at 37 °C within the Fluoroskan Ascent FL (Thermo Fisher Scientific, Waltham, MA USA) and the fluorescence recorded with an Ex 485/ Em 520 every 3 s. The baseline fluorescence was monitored for 5 min, then 50 μL assay buffer (0.01% faf-BSA, 20 mM HEPES in HBSS^++) was added without or with 10 μM 16:0 LPI, and fluorescence was recorded for a further 5 min. […]

Consider lysophosphatidylinositol [LPI], for which the “mean increase of intracellular Ca2+ over basal levels” value is given as ~ 40 nM.
